Measured values taken from US9494572B2, “Method and compositions for treating cancer and related methods” (Icahn School of Medicine at Mount Sinai, priority 2011, dated 2016).
Like-named read-outs stand apart in the source and are kept apart here.

How the values were obtained:
H1650 cell line = assay: Apoptosis (FACS sub-G1, cleaved PARP and Caspase 3) in H1650; format: cell-based, human
Protocol: (§1) Cells treated with drug or transfected with siRNA were stained with propidium iodide to ascertain DNA content and determine cell cycle distribution within the cell population as previously described. […] Sub-G1 peaks were analyzed on DNA histograms; hypo diploid DNA represented dead cells. This fraction indicated apoptotic as well as necrotic cells. Apoptosis was further validated by Caspase 3 and PARP cleavage through western blotting.
(§2) The role of KLF6 in induction of apoptosis in response to anti-EGFR therapeutics was further tested in cell culture.

KLF6 [1] = assay: KLF6 mRNA and protein expression in H1650; format: cell-based, human; conditions: 40 μM TFP, 1 h and 48 h
Protocol: (§3) RNA was isolated from cell lines and tumor samples using the RNeasy Mini Kit (Qiagen) as per manufacturer's instructions. For each PCR reaction, 1 μg RNA was reverse transcribed using iScript cDNA synthesis kit (BioRad Laboratories). Each cDNA sample was subjected to sequence-specific partial amplification with specific primers and the SYBR green PCR Master Mix (Applied Biosystems) on an ABI PRISM 7900HT plate-reader instrument. […] The following primers were also used: FOXO1 forward 5′ […]
as §2

FOXO1 [2] = assay: Nuclear cytoplasmic fractionation of H1650; format: cell-based, human; conditions: 20 μM, 1 h
Protocol: H1650 cells were seeded and grown to 60-70% confluency, and treated with increasing doses of TFP. Cell lysates were extracted using NE-PER Nuclear and Cytoplasmic Extraction Reagents (Thermo Scientific) according to supplier's protocol.
Trifluoperazine Hydrochloride (TFP), a FDA-approved antipsychotic and antiemetic, is an effective nuclear export inhibitor of the FOXO1 transcription factor that increases FOXO1 nuclear localization via calmodulin inhibition upstream of AKT and downstream of PI3K. Kau, T. R., et al. Cancer Cell 4, 463-476 (2003). TFP was used to inhibit nuclear export of FOXO1 and determine if activation of the FOXO1/KLF6 transcriptional network could restore sensitivity to the PTEN-depleted, erlotinib-resistant cell line, H1650. To examine the effect of TFP on nuclear localization of FOXO1 and, subsequently, KLF6 expression, H1650 cells were treated for 1 h with increasing doses of TFP (0, 20 μM, 40 μM) and fractionated into nuclear and cytoplasmic fractions. BRCA1 served as a nuclear marker and GAPDH served as a cytoplasmic marker for the fractionation.

H1650 xenograft tumors = assay: Tumorgenicity assay, H1650 xenograft; format: in vivo, nude mice; conditions: i.p., erlotinib 25 mg/kg, TFP 10 mg/kg, four treatments
Protocol: H1650 cells (5×10^6) were similarly injected into the right flank of 6 to 8-week old female BALB/c nu/nu mice. Tumor volume was assessed weekly as previously described by Sangodkar, J., et al., supra until volumes reached an average of 200 mm^3. […] A total of four treatments were given with a 48 h rest period.
Tumor growth was measured weekly until average tumor volume for all mice was approximately 200 mm^3. […] Tumor growth in H1650-injected nude mice was measured 24 hours after each drug injection. […] Lysate homogenates from treated and untreated tumors were run and probed in parallel (n=5); statistical significance of densitometry calculations indicated (*P<0.05; **P<0.01; ***P<0.001).

[3] = cited from earlier work
HCC827 cell line = tested on: HCC827 cell line
Protocol: as §1
(§4) In addition, dysregulated activity of downstream mediators of EGFR signaling, such as PTEN, PI3K and K-Ras or amplification of the MET proto-oncogene can also drive the resistant phenotype.

A549 cell line = assay: Apoptosis (FACS sub-G1 fraction, cleaved PARP) in A549; format: cell-based, human
Protocol: as §1, §4

H2122 cell line = assay: Apoptosis (FACS sub-G1 fraction, cleaved PARP) in H2122; format: cell-based, human
Protocol: as §1, §4

H1975 cell line = assay: Apoptosis (FACS sub-G1 fraction, cleaved PARP) in H1975; format: cell-based; conditions: Homo sapiens, NCI-H1975; H1975 (T790M EGFR); 72 h; read-out: IC50, erlotinib-mediated apoptosis
Protocol: as §1, §4

KLF6 [4] = assay: KLF6 mRNA and protein expression (qRT-PCR, western) in HCC827; format: cell-based, human
Protocol: as §3

KLF6 [5] = assay: KLF6 mRNA and protein expression in H2122; format: cell-based, human; conditions: 1 μM 72 h
Protocol: as §3

KLF6 [6] = assay: KLF6 mRNA and protein expression in A549; format: cell-based, human; conditions: 1 μM 72 h
Protocol: as §3

[7] = tested on: EGFR^L858R mutant mouse-derived tumors; conditions: in vivo
[8] = tested on: P-EGFR, P-AKT, P-FOXO1, T-FOXO1; assay: Western blot of EGFR-AKT-FOXO1 signaling in HCC827; format: cell-based, human
Protocol: EGFR activates two major downstream pathways, the Ras-Raf-MAPK and the PI3K-AKT signaling cascades, resulting in both increased cellular proliferation and survival. […] The role of PI3K-AKT signaling cascade was tested utilizing an antagonist of AKT signaling that acts by inhibiting of the PDK1 and 2 kinases that activate AKT.

FOXO1 and KLF6 = format: cell-based, human
shLuc-HCC827 = assay: Clonogenic assay, shLuc-HCC827; format: cell-based, human; conditions: control shLuc; 50 nM; 7 days
Protocol: HCC827 shLuc and shKLF6 were plated at a low density in 6-well plates. […] Cells were fixed and then stained with 1% crystal violet staining solution.

ERK and AKT [9] = tested on: ERK and AKT
Description: (§5) The variable sensitivity of the lung adenocarcinoma cell lines to anti-EGFR-based therapy was used to determine the effects of EGFR inhibition on KLF6 gene transcription.

ERK and AKT [10] = tested on: ERK and AKT; remark: listed apart in the source
Description: as §5

H1650 = assay: Cell viability, H1650; format: cell-based; conditions: Homo sapiens, NCI-H1650
A549luc = assay: Cell viability, A549luc; format: cell-based; conditions: Homo sapiens
H3255 = assay: Cell viability, H3255; format: cell-based; conditions: Homo sapiens, NCI-H3255
FOXO1 [11] = assay: FOXO1 immunocytochemistry in H1650 cells; conditions: 20 μM, 48 hours, vs untreated
Protocol: Viability of cells line H1650, A549luc and H3255 were determined for cells grown in control medium and medium supplemented with 10 μM, 20 μM and 40 μM chlorpromazine.
H1650 cells were plated on glass coverslips at a density of 150,000 cells in complete RPMI media. […] After incubation with a secondary goat anti-Rabbit IgG (1:1000), (H+L) FITC conjugate (Millipore, P307F), cover slips were mounted with Vectashield DAPI counterstain (H1200) and visualized under fluorescent microscope. A total of 100 cells per condition were counted to determine the distribution of FOXO1 in the cytoplasm vs. the nucleus.

SMILES: CN1CCN(CCCN2c3ccccc3Sc3ccc(C(F)(F)F)cc32)CC1 [TFP, 10-[3-(4-methylpiperazin-1-yl)propyl]-2-(trifluoromethyl)-10H-phenothiazine]
- Apoptosis (FACS, cleaved PARP, cleaved Caspase 3) (H1650 cell line; 40 μM TFP, 1 h): increased apoptosis
- KLF6 mRNA and protein (KLF6 [1]): upregulation of KLF6 mRNA and protein
- Nuclear FOXO1 expression (FOXO1 [2]): increased nuclear FOXO1 expression
- Tumor growth rate (H1650 xenograft tumors): decreased
- average daily clinical dose for CNS effect [3]: 0.3 µmol/kg

SMILES: OCCN1CCN(CCCN2c3ccccc3Sc3ccc(Cl)cc32)CC1 [perphenazine]
- average daily clinical dose for CNS effect [3]: ~1 µmol/kg

SMILES: OCCN1CCN(CC/C=C2/c3ccccc3Sc3ccc(Cl)cc32)CC1 [zuclopenthixol]
- average daily clinical dose for CNS effect [3]: ~0.05 µmol/kg

SMILES: CN(C)CCCN1c2ccccc2Sc2ccc(C(F)(F)F)cc21 [triflupromazine]
- average daily clinical dose for CNS effect [3]: 6 µmol/kg

SMILES: CSc1ccc2c(c1)N(CCC1CCCCN1C)c1ccccc1S2 (stereo not drawn) [thiordazine]
- average daily clinical dose for CNS effect [3]: 13 µmol/kg

SMILES: CN(C)CCCN1c2ccccc2Sc2ccccc21 [promazine]
- average daily clinical dose for CNS effect [3]: 33 µmol/kg

SMILES: OCCN1CCN(CC/C=C2/c3ccccc3Sc3ccc(C(F)(F)F)cc32)CC1 [flupentixol]
- average daily clinical dose for CNS effect [3]: 0.01 µmol/kg

SMILES: C#Cc1cccc(Nc2ncnc3cc(OCCOC)c(OCCOC)cc23)c1 [erlotinib, [6,7-bis(2-methoxyethoxy)-4-quinazolin-4-yl]-(3-ethynylphenyl) amine]
- Apoptosis (sub-G1 propidium iodide staining, cleaved PARP) (HCC827 cell line): significantly increased levels of apoptosis
- Cleaved PARP (HCC827 cell line): increased cleaved PARP
- Induction of apoptosis (A549 cell line; A549): did not result in a significant induction of apoptosis
- IC50 (A549 cell line; Homo sapiens, A549, 72 h, read-out: IC50, erlotinib-mediated apoptosis): > 0.5 µM
- Induction of apoptosis (H2122 cell line; H2122): did not result in a significant induction of apoptosis
- IC50 (H2122 cell line; Homo sapiens, NCI-H2122, 72 h, read-out: IC50, erlotinib-mediated apoptosis): > 0.5 µM
- IC50 (H1975 cell line): > 0.5 µM
- Apoptosis (sub-G1 propidium iodide staining, cleaved PARP) (H1650 cell line; 1 μM erlotinib, 48 h): no increase in apoptosis
- KLF6 expression (KLF6 [4]): significant upregulated
- KLF6 gene expression, endogenous mRNA and protein (KLF6 [4]): Significant upregulation
- KLF6 expression, mRNA and protein (KLF6 [5]): still upregulated
- KLF6 expression, mRNA and protein (KLF6 [6]): still upregulated
- KLF6 expression in tumors [7]: increased KLF6 expression at both the mRNA and protein level
- Spontaneous apoptosis, Caspase 3 cleavage in tumors [7]: increased Caspase 3 cleavage
- Phosphorylated EGFR, AKT and FOXO1 [8]: reduced phosphorylated forms of EGFR, AKT and FOXO1
- Total FOXO1 [8]: increased total amount of FOXO1
- Nuclear localization of FOXO1 and KLF6 (FOXO1 and KLF6): increased
- Colony formation (shLuc-HCC827): decreased colony formation
- Tumor growth rate (H1650 xenograft tumors): increased
- Downstream ERK signaling (ERK and AKT [9]): no changes in downstream ERK signaling
- Downstream ERK signaling (ERK and AKT [10]): no changes in downstream ERK signaling

SMILES: CN(C)CCCN1c2ccccc2Sc2ccc(Cl)cc21 [chlorpromazine, 3-(2-chloro-10H-phenothiazin-10-yl)-N,N-dimethyl-propan-1-amine]
- Apoptosis (sub-G1 propidium iodide staining) (H1650 cell line; increasing doses of CPZ, 48 hrs): increased amount of apoptosis
- IC50 (H1650): 20 µM
- IC50 (A549luc): 20 µM
- IC50 (H3255): 8 µM
- average daily clinical dose for CNS effect [3]: 12 µmol/kg
- Nuclear accumulation of FOXO1 (FOXO1 [11]): significant nuclear accumulation of FOXO1

SMILES: OCCN1CCN(CCCN2c3ccccc3Sc3ccc(C(F)(F)F)cc32)CC1 [fluphenazine]
- average daily clinical dose for CNS effect [3]: 0.17 µmol/kg
